Test results: patent publication US4602015A, “2-piperazinopyrimidine salt and pharmaceutical compositions containing it” (priority 1983, dated 1986)

Columns and labels:
[1] = test system: prochlorperazine-induced catalepsy; assay: antagonism of prochlorperazine-induced catalepsy (cork test, oral); type: in vivo, Wistar male rats; conditions: rat; for Prochlorperazine Catal. antag. ED50: 1 h before prochlorperazine 10 mg/kg s.c., interval in parentheses printed on next line: napsilate (5.0-6.4), base (12-45)
Procedure: The antidepressive activity of the compound of the invention has been evaluated in the test of antagonism of prochlorperazine-induced catalepsy (K. Biziere et al., Arzneimittel Forschung, 1982, 32 (II), 824-831). The 2-(1-piperazinyl)pyrimidine napsilate and the corresponding free base, as reference compound, were administered orally to groups of 10 Wistar male rats weighing 220-240 g; at the same time control animals were treated with saline. One hour later, prochlorperazine was administered subcutaneously at a dose of 10 mg/kg. Five hours after this administration, the number of cataleptic animals was assessed by the cork test. According to this test the animals were placed with their forepaws on a stand formed by three superposed corks (11 cm total height) and forced to maintain this position for 20 seconds at least. The performances of each group of animals were compared with those of the controls having received the vehicle and prochlorperazine only.

[2] = test system: rotational behaviour after unilateral lesion of the striatum; assay: rotational behaviour in mice after unilateral 6-hydroxydopamine lesion of the striatum; type: in vivo, Female Charles River CD1 mice; conditions: for Variation % of turns as compared to controls: Table II, mouse, oral, 1 h after administration, doses 0.15 (base), 0.18 (hydrochloride), 0.34 (napsilate) mg/kg = 0.15 mg/kg free base, ** p < 0.01, ns not significant
From the text: (§1) The dopaminergic mechanism of the compound of the invention was studied in comparison with the corresponding free base and its hydrochloride by analysing the rotational behaviour in mice after unilateral lesion of the striatum (P. Protais et al., J. Pharmacol. 1976, 7, 251-255).
(§2) Female Charles River CD1 mice weighing 20-24 g were previously subjected to a unilateral lesion of the striatum by stereotaxic injection of 8 mcg/animal of 6-hydroxydopamine. A week later, the 2-(1-piperazinyl)-pyrimidine napsilate, the 2-(1-piperazinyl)pyrimidine hydrochloride and the free base were administered by oral route to groups of six mice at a dose corresponding to 0.15 mg/kg of free base. The number of turns was recorded, during 2 minutes, one hour after the administration of the three products. The turns ipsilateral to the lesion were plotted as positive values, the contralateral turns were plotted as negative values. The algebric sum of turns for each group of treated animals was compared to that of control animals treated with the vehicle (saline) only.

[3] = test system: rotational behaviour after unilateral lesion of the striatum; assay: rotational behaviour in lesioned mice, time course 60, 180 and 360 minutes; type: in vivo, Female Charles River CD1 mice; conditions: for Variation % of turns after 60 minutes: Table III, mouse, oral, dose corresponding to 0.15 mg/kg free base, ** p < 0.01, ns not significant
From the text: as §1, §2
The dopaminergic action of the compound of the present invention has also been evaluated in the time in comparison with the corresponding free base and the hydrochloride thereof.

[4] = test system: rotational behaviour after unilateral lesion of the striatum; assay: as above; type: in vivo, Female Charles River CD1 mice; conditions: Table III, mouse, oral, dose corresponding to 0.15 mg/kg free base, ** p < 0.01, ns not significant
[5] = H. W. Stewart et al., J. Org. Chem. 1953; cited from earlier work
[6] = psychotropic activity (general statement); type: in vivo

SMILES	Prochlorperazine Catal. antag. ED50 [1]	Variation % of turns as compared to controls [2]	effect on algebric sum of turns (in words) ([2]; comment on Table II)	Variation % of turns after 60 minutes [3]	activity with time (in words) ([3]; comment on Table III)	Variation % of turns after 180 minutes [4]	Variation % of turns after 360 minutes [4]	analgesic or antifilarial activity (in words) [5]	dopaminergic activity (in words) ([2]; comment on Table II)	oral activity relative to corresponding free base (times more active) ([1]; ratio versus free base)	negative variation of turns ([2]; comment on Table II, contralateral turns exceed ipsilateral turns)	potency versus reference products (in words) ([3]; comment on Table III, versus free base and hydrochloride)	psychotropic activity (in words) ([6]; dopaminergic mechanism, antipsychotic, antidepressive, tranquillizing-sedative)	activity versus free base and hydrochloride (in words) ([6]; in the absolute sense)	duration of activity (in words) ([6]; in vivo)
c1cnc(N2CCNCC2)nc1 [2-(1-piperazinyl)pyrimidine base, 2-(1-piperazinyl)pyrimidine]	24 mcmol/kg	-94%	significantly reduces the algebric sum of turns	-94%	tends to decrease with the time	-62%	-60%	none of which has shown analgesic or antifilarial activity	–	–	–	–	–	–	–
Cl.c1cnc(N2CCNCC2)nc1 [2-(1-piperazinyl)pyrimidine hydrochloride]	–	-29%	no significant effect	-29%	inactive with the time too	-28%	-22%	–	nearly inactive	–	–	–	–	–	–
c1cnc(N2CCNCC2)nc1 [2-(1-piperazinyl)pyrimidine napsilate, 2-(1-piperazinyl)pyrimidine 2-naphtalenesulfonate]	5.7 mcmol/kg	-117%	–	-117%	increases significantly with the time	-126%	-147%	–	dopaminergic activity higher than that of the free base	about 4 times	higher than 100%	more potent than the reference products	very good psychotropic activity	much more active	long-lasting and increases with time
